{
  "source": "patent US9376421B2",
  "about": "“Compounds and methods for myotonic dystrophy therapy” (The Board of Trustees of the University of Illinois, priority 2014, dated 2016)",
  "key": {"HIV FS": {"system": "HIV FS", "assay": "Ligand-RNA binding affinity, HIV FS", "parameters": "species or system HIV-1"}, "(CTG.CAG)74": {"system": "(CTG.CAG)74", "assay": "In vitro transcription of (CTG.CAG)74", "format": "biochemical", "description": "FIG. 8A-B. In vitro transcription of (CTG.CAG)74 (SEQ ID NOS 3-4, respectively). Ligands at different concentrations were incubated with 15 ng linearized plasmids in T7 RNA polymerse mixture at 37° C. After 2 h, the reaction mixture was on a 8% denaturing gel. (a) Transcription gels of ligands at different concentrations (“(CUG)74” is disclosed as SEQ ID NO: 22). (b) Plot of the percentage of transcription inhibition versus ligand concentrations. The error bars represent standard errors of mean of three independent experiments. Untreated at 100 μM is at 0%; ligand 2 at 100 μM is at ˜10%; ligand 7 at 100 μM is at ˜35%; ligand 6 at 100 μM is at ˜80%; ligand 9 at 100 μM is at ˜96%; and ligand 5 at 100 μM is at ˜99%.\n(SEQ ID NOS 3-4, respectively) transcription by 5, 6, and 9 in vitro. […] Nonetheless, the additional ammonium groups in these agents might potentially increase their affinity for both CTG DNA and CUG RNA so we returned to examine the potential for inhibition of CTG^exp transcription. The in vitro (CTG.CAG)74 (SEQ ID NOS 3-4, respectively) transcription assays utilized a T7 promoter located in the upstream region of the repeats.\n(SEQ ID NOS 3-4, respectively). T7 RNA polymerase-mediated transcription reactions were incubated at 37° C. for 2 h. A 10 μL mixture contained 15 ng of linearized plasmid (CTG)74 (SEQ ID NO: 3) or control plasmid templates, 0.5 mM each rATP, rCTP, rGTP, and rUTP and 0.5 U T7 polymerase (Biolab) in 1×T7 transcription buffer (80 mM Tris pH 8.3, 10 mM MgCl2, 2 mM spermine, 0.1% Triton-X, 10 mM NaCl). Ligand was added with the final concentrations of 0, 1, 10, 50, and 100 μM prior to incubation. Reactions were quenched by adding 8 μL of 8 M Urea and 2 μL of denaturing dye (95% formamide, 5 mM EDTA, 0.025% each xylene cyanol and bromophenol blue) and heating to 95° C. for 5 min. Of this solution, 15 μL was run on a 8% denaturing polyacrylamide gel in 0.5×TBE and stained with EtBr. Bands were quantified using the ImageJ (NIH). The intensity of (CUG)74 (SEQ ID NO: 22) band (ca. 260 nt) was normalized to that from the untreated transcription reaction. […]"}},
  "data": [
    {"smiles": "N=C(NCCCCNc1nc(N)nc(N)n1)c1ccc(C(=N)NCCCCNc2nc(N)nc(N)n2)cc1", "note": "[Ligand 2]", "values": [
      {"measurement": "affinity toward HIV FS", "setting": "HIV FS", "result": "no affinity"},
      {"measurement": "transcription inhibition of (CTG.CAG)74 at 100 μM", "setting": "(CTG.CAG)74; 100 μM, 2 h, 37° C., T7 RNA polymerase", "result": "~10", "unit": "%"},
      {"measurement": "inhibition of (CTG.CAG)74 transcription (qualitative)", "setting": "(CTG.CAG)74; 1-100 μM", "result": "negligible effects"}
    ]}
  ]
}
